Measurements taken from ChEMBL document CHEMBL5715949, “Discovery of a selective irreversible BMX inhibitor for prostate cancer” (ACS Chem Biol, 2013).
The source made the active and inactive calls. No cut-off for these calls is given here.

Columns and labels:
[1] = Inhibition of PI3K/AKT/mTOR signalling pathway in human RV-1 cells assessed as decrease in GSKalpha/beta phosphorylation at 2.5 uM incubated for 4 hrs by immunoblot analysis; type: cell-based
[2] = target: Serine/threonine-protein kinase Nek4 (Homo sapiens) (UniProt P51957); test: Inhibition of NEK4 (unknown origin) assessed as remaining activity at 1 uM by Kinome scan method relative to control
[3] = Induction of cell cycle arrest in human RV-1 cells assessed as accumulation of cells at S phase at 2.5 uM incubated for 5 days by propidium iodide staining based flow cytometric analysis (reference value: 28.9 %); type: functional; conditions: time 5 day
[4] = target: Myosin light chain kinase 2, skeletal/cardiac muscle (Homo sapiens) (UniProt Q9H1R3); test: Inhibition of MYLK2 (unknown origin) assessed as remaining activity at 1 uM by Kinome scan method relative to control
[5] = target: Serine/threonine-protein kinase 16 (Homo sapiens) (UniProt O75716); test: Inhibition of STK16 (unknown origin) assessed as remaining activity at 1 uM by Kinome scan method relative to control
[6] = target: Cyclin-dependent kinase 7 (Homo sapiens) (UniProt P50613); test: Inhibition of CDK7 (unknown origin) assessed as remaining activity at 1 uM by Kinome scan method relative to control
[7] = tested on: RV-1; test: Down regulation of BMX protein expression in human RV-1 cells expressing BMX C496S mutant at 5 uM incubated for 72 hrs by western blot analysis; type: functional, cell-based
[8] = tested on: Receptor-type tyrosine-protein kinase FLT3 (Homo sapiens), P36888 [UNDEFINED MUTATION]; test: Inhibition of FLT3 ITD mutant (unknown origin) assessed as remaining activity at 1 uM by Kinome scan method relative to control
[9] = target: TGF-beta receptor type-1 (Homo sapiens) (UniProt P36897); test: Inhibition of TGFBR1 (unknown origin) assessed as remaining activity at 1 uM by Kinome scan method relative to control
[10] = target: Serine/threonine-protein kinase PAK 3 (Homo sapiens) (UniProt O75914); test: Inhibition of PAK3 (unknown origin) assessed as remaining activity at 1 uM by Kinome scan method relative to control
[11] = tested on: Hepatocyte growth factor receptor (Homo sapiens), P08581 [M1250T]; test: Inhibition of MET M1250T mutant (unknown origin) assessed as remaining activity at 1 uM by Kinome scan method relative to control
[12] = target: Tyrosine-protein kinase Yes (Homo sapiens) (UniProt P07947); test: Inhibition of YES (unknown origin) assessed as remaining activity at 1 uM by Kinome scan method relative to control
[13] = target: AP2-associated protein kinase 1 (Homo sapiens) (UniProt Q2M2I8); test: Inhibition of AAK1 (unknown origin) assessed as remaining activity at 1 uM by Kinome scan method relative to control
[14] = Induction of cell cycle arrest in human RV-1 cells assessed as accumulation of cells at G1 phase at 2.5 uM incubated for 5 days in presence of MK2206 by propidium iodide staining based flow cytometric analysis (reference value: 59.7 %); type: functional; conditions: time 5 day
[15] = target: Serine/threonine-protein kinase D2 (Homo sapiens) (UniProt Q9BZL6); test: Inhibition of PRKD2 (unknown origin) assessed as remaining activity at 1 uM by Kinome scan method relative to control
[16] = target: Phosphatidylinositol 4,5-bisphosphate 3-kinase catalytic subunit beta isoform (Homo sapiens) (UniProt P42338); test: Inhibition of PIK3CB (unknown origin) assessed as remaining activity at 1 uM by Kinome scan method relative to control
[17] = target: Mitogen-activated protein kinase kinase kinase 15 (Homo sapiens) (UniProt Q6ZN16); test: Inhibition of MAP3K15 (unknown origin) assessed as remaining activity at 1 uM by Kinome scan method relative to control
[18] = target: Myosin-IIIb (Homo sapiens) (UniProt Q8WXR4); test: Inhibition of MYO3B (unknown origin) assessed as remaining activity at 1 uM by Kinome scan method relative to control
[19] = target: Cytoplasmic tyrosine-protein kinase BMX (Homo sapiens, UniProt P51813); test: Inhibition of Flag-tagged BMX (unknown origin) expressed in HEK293T cells pre incubated for 30 mins followed by ATP addition and measured after 20 mins by immunoprecipitate assay; type: cell-based
[20] = target: Tyrosine-protein kinase JAK1 (Homo sapiens) (UniProt P23458); test: Inhibition of JAK1 JH1 domain (unknown origin) assessed as remaining activity at 1 uM by Kinome scan method relative to control
[21] = target: Tyrosine-protein kinase Fes/Fps (Homo sapiens) (UniProt P07332); test: Inhibition of FES (unknown origin) assessed as remaining activity at 1 uM by Kinome scan method relative to control
[22] = target: Phosphatidylinositol 4,5-bisphosphate 3-kinase catalytic subunit alpha isoform (Homo sapiens) (UniProt P42336); test: Inhibition of PIK3CA (unknown origin) assessed as remaining activity at 1 uM by Kinome scan method relative to control
[23] = target: Serine/threonine-protein kinase RIO1 (Homo sapiens) (UniProt Q9BRS2); test: Inhibition of RIOK1 (unknown origin) assessed as remaining activity at 1 uM by Kinome scan method relative to control
[24] = target: Platelet-derived growth factor receptor alpha (Homo sapiens) (UniProt P16234); test: Inhibition of PDGFRalpha (unknown origin) assessed as remaining activity at 1 uM by Kinome scan method relative to control
[25] = target: Fibroblast growth factor receptor 1 (Homo sapiens) (UniProt P11362); test: Inhibition of FGFR1 (unknown origin) assessed as remaining activity at 1 uM by Kinome scan method relative to control
[26] = target: cAMP-dependent protein kinase catalytic subunit alpha (Homo sapiens) (UniProt P17612); test: Inhibition of PKAC-alpha (unknown origin) assessed as remaining activity at 1 uM by Kinome scan method relative to control
[27] = tested on: BaF3; test: Antiproliferative activity against mouse BaF3 cells expressing TEL-fused TYK2 […] mutant assessed growth inhibition incubated for 2 to 5 days by CellTiter-Glo assay; type: functional; conditions: time 2-5 day
[28] = target: Interleukin-1 receptor-associated kinase 1 (Homo sapiens) (UniProt P51617); test: Inhibition of IRAK1 (unknown origin) assessed as remaining activity at 1 uM by Kinome scan method relative to control
[29] = target: Serine/threonine-protein kinase MARK2 (Homo sapiens) (UniProt Q7KZI7); test: Inhibition of MARK2 (unknown origin) assessed as remaining activity at 1 uM by Kinome scan method relative to control
[30] = Inhibition of PI3K/AKT/mTOR signalling pathway in human RV-1 cells assessed as decrease in S6K phosphorylation at T389 residue at 2.5 uM incubated for 4 hrs by immunoblot analysis; type: cell-based
[31] = target: Mitogen-activated protein kinase kinase kinase 20 (Homo sapiens) (UniProt Q9NYL2); test: Inhibition of ZAK (unknown origin) assessed as remaining activity at 1 uM by Kinome scan method relative to control
[32] = target: BMP-2-inducible protein kinase (Homo sapiens) (UniProt Q9NSY1); test: Inhibition of BIKE (unknown origin) assessed as remaining activity at 1 uM by Kinome scan method relative to control
Chain of BMP-2-inducible protein kinase (Homo sapiens) (Q9NSY1 whole entry, looked up): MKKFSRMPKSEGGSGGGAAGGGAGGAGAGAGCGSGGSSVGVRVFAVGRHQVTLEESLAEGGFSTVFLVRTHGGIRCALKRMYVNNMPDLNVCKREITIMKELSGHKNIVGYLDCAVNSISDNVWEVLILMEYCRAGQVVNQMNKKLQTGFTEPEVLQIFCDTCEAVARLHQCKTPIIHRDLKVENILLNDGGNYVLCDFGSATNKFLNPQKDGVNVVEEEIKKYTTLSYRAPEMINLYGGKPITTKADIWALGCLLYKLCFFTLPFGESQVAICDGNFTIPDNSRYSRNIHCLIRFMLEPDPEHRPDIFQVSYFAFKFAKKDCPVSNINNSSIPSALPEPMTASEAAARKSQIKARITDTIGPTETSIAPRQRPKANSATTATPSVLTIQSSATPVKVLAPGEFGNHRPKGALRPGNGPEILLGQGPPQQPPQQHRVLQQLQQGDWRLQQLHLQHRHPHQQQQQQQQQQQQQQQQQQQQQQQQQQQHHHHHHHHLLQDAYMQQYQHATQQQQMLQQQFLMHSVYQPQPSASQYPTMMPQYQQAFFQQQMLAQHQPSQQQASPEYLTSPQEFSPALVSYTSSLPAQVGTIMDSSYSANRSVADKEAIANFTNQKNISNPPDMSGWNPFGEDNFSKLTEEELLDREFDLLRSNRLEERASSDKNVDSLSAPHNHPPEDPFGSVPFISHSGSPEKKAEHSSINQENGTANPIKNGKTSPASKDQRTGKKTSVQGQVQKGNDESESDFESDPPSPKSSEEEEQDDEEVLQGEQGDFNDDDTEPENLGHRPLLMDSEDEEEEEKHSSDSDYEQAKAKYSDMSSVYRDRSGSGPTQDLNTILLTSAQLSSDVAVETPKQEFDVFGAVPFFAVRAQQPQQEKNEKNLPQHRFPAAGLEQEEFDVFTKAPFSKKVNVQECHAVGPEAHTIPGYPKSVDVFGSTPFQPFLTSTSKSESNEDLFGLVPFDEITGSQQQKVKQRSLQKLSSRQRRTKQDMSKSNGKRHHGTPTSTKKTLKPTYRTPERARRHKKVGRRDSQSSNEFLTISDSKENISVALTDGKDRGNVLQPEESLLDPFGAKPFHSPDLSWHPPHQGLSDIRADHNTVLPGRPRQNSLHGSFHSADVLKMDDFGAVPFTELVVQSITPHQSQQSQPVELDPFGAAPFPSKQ

Chain of Tyrosine-protein kinase Yes (Homo sapiens) (P07947 2-543 limits assumed): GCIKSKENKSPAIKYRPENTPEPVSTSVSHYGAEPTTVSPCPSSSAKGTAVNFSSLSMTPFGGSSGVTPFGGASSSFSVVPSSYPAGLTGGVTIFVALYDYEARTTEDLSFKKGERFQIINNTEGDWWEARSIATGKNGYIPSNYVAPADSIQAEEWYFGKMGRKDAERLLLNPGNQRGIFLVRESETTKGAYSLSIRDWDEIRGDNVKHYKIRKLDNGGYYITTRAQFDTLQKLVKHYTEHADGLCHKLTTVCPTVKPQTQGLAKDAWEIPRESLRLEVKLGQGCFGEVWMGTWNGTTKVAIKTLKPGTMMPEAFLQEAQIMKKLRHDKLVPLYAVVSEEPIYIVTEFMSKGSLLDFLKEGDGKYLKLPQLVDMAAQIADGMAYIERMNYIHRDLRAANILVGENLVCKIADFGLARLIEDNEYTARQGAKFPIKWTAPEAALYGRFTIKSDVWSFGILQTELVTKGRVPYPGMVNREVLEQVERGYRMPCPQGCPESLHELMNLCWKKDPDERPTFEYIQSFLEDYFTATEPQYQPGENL
Chain of Interleukin-1 receptor-associated kinase 1 (Homo sapiens) (P51617 whole entry, looked up): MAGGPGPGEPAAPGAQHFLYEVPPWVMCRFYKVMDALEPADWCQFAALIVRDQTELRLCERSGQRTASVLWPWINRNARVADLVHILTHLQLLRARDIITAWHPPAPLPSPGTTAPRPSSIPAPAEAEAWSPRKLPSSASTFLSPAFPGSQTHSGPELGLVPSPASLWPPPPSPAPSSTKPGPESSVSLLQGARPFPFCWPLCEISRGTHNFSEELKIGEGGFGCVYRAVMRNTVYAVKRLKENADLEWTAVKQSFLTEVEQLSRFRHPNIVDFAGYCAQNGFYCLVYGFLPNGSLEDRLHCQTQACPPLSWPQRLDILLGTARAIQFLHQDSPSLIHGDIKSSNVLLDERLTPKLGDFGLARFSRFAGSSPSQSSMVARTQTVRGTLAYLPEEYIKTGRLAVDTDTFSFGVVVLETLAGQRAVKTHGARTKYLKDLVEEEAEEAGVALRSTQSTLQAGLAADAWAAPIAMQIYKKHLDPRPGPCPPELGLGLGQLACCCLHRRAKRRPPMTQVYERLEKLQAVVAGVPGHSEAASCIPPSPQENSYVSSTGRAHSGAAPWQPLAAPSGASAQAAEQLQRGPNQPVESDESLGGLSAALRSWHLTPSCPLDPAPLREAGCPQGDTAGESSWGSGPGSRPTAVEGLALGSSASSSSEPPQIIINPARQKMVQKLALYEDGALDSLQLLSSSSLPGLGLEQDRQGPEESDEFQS
Chain of Serine/threonine-protein kinase RIO1 (Homo sapiens) (Q9BRS2 whole entry): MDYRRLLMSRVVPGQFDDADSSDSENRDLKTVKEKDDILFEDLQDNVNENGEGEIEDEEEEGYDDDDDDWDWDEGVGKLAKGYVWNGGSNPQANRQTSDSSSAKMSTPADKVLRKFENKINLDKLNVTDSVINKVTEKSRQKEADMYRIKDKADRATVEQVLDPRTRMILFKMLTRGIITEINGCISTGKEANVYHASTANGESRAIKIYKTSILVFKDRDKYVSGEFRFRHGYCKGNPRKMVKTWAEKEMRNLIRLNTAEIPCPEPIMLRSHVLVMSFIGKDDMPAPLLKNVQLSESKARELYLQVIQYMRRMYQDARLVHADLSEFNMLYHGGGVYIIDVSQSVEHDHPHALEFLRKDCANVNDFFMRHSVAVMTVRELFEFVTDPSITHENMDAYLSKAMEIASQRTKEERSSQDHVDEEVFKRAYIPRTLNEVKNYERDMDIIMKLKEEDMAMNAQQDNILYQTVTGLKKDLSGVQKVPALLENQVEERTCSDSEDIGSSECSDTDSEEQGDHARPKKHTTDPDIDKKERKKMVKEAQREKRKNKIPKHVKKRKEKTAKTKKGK
Chain of Cytoplasmic tyrosine-protein kinase BMX (P51813 whole entry, the tested form may be a part): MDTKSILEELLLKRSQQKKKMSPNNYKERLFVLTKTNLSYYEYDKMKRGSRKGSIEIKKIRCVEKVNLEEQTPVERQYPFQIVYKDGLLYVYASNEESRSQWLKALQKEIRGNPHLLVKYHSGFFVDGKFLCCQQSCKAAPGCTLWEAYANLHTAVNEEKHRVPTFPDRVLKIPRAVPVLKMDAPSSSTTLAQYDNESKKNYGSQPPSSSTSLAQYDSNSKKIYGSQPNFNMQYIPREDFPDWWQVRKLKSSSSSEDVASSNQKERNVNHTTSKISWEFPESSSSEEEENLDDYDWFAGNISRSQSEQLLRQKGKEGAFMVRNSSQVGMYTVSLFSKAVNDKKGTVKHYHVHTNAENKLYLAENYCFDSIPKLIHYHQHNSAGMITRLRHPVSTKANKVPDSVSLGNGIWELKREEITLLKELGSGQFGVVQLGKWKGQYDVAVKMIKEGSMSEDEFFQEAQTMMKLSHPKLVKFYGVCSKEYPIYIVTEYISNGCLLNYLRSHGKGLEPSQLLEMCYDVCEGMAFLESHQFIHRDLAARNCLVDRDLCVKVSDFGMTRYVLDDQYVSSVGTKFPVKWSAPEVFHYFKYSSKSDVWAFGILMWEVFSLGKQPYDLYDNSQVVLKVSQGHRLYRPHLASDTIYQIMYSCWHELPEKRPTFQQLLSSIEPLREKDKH
Chain of Mitogen-activated protein kinase kinase kinase 15 (Homo sapiens) (Q6ZN16 whole entry): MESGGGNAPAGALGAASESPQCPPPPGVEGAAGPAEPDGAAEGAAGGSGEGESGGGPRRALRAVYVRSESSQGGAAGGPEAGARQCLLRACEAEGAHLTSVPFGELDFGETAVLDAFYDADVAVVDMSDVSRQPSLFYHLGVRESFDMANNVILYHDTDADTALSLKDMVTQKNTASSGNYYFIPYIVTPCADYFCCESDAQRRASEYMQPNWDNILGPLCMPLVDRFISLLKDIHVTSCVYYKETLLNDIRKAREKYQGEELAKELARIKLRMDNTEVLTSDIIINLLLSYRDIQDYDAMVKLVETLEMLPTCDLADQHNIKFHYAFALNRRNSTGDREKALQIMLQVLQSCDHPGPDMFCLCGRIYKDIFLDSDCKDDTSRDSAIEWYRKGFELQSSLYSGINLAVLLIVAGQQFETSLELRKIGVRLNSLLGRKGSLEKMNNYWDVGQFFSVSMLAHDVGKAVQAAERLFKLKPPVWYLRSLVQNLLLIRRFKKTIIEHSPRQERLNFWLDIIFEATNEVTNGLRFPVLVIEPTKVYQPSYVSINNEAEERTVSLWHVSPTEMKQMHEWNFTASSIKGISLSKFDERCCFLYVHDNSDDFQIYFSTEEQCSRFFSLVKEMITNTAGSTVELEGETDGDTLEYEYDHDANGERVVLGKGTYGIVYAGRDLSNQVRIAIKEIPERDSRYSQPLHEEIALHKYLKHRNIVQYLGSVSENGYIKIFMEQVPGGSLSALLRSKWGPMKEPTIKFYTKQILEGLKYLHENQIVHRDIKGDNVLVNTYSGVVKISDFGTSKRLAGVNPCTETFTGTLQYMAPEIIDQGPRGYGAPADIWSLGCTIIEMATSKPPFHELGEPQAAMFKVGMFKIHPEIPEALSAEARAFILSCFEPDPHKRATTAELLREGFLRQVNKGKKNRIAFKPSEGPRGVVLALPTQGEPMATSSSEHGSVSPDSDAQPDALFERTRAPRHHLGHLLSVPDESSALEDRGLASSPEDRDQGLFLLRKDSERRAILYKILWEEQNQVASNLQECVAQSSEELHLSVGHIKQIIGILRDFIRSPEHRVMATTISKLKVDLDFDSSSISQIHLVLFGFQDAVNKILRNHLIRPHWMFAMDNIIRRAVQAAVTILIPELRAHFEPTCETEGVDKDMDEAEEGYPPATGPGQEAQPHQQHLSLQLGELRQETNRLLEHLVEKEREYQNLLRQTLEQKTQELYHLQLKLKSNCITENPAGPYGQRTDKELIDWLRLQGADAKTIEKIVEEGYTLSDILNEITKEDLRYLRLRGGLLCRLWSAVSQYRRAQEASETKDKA

Q: Which inhibition [1] does the source give for `C=CC(=O)Nc1cc(-n2c(=O)ccc3cnc4ccc(-c5ccc(NS(C)(=O)=O)cc5)cc4c32)ccc1C` here?
A: The inhibition was “inactive”.

Q: And the Activity [2]?
A: Its Activity is 81%.

Q: And the Activity [3]?
A: The Activity was 20.6%.

Q: What about the Activity [4] of the same compound?
A: The Activity was 93%.

Q: And the Activity [5]?
A: Its Activity is 98%.

Q: What about the Activity [6] of the same compound?
A: The Activity was 79%.

Q: And the Activity [7]?
A: The Activity was “Active”.

Q: And the Activity [8]?
A: Its Activity is 99%.

Q: What about the Activity [9] of the same compound?
A: The Activity was 97%.

Q: And the Activity [10]?
A: Its Activity is 92%.

Q: What about the Activity [11] of the same compound?
A: The Activity was 80%.

Q: And the Activity [12]?
A: The Activity was 74%.

Q: What about the Activity [13] of the same compound?
A: Its Activity is 93%.

Q: And the Activity [14]?
A: The Activity was 64.2%.

Q: And the Activity [15]?
A: Its Activity is 87%.

Q: What about the Activity [16] of the same compound?
A: Its Activity is 75%.

Q: What about the Activity [17] of the same compound?
A: Its Activity is 70%.

Q: What about the Activity [18] of the same compound?
A: The Activity was 92%.

Q: And the IC50 [19]?
A: Its IC50 is 138 nM.

Q: And the Activity [20]?
A: The Activity was 87%.

Q: What about the Activity [21] of the same compound?
A: The Activity was 92%.

Q: What about the Activity [22] of the same compound?
A: The Activity was 68%.

Q: And the Activity [23]?
A: Its Activity is 20%.

Q: What about the Activity [24] of the same compound?
A: Its Activity is 92%.

Q: And the Activity [25]?
A: The Activity was 92%.

Q: And the Activity [26]?
A: The Activity was 83%.

Q: And the GI50 [27]?
A: The GI50 was 6.09 µM.

Q: What about the Activity [28] of the same compound?
A: The Activity was 72%.

Q: What about the Activity [29] of the same compound?
A: Its Activity is 94%.

Q: What about the inhibition [30] of the same compound?
A: Its inhibition is “inactive”.

Q: What about the Activity [31] of the same compound?
A: Its Activity is 64%.

Q: What about the Activity [32] of the same compound?
A: Its Activity is 76%.
